# Measurements: US10413505B1, “Pharmaceutical compositions and methods of using the same” (priority 2017, dated 2019)
# How the values were obtained:
# [1] = Example 2 urinary pharmacokinetics, normal renal function vs severe renal impairment; settings: single intranasal 160 mg cocaine HCl; for 0 to 32 hour urinary recovery (geometric mean) / 0 to 32 hour urinary recovery (mean) / 0 to 32 hour urinary recovery (median): metabolites as cocaine equivalents
# Procedure: For the urine analysis of cocaine, BE, and EME, individual urinary recoveries for each analyte were determined over each collection interval as the product of the urine concentration times the urine volume. The total recoveries were determined as the sum of the recoveries over all the intervals. Total urinary recoveries were also expressed as the percentage of the administered dose, after correction for the molecular weight of each analyte. The renal clearances of cocaine, BE, and EME were determined as the urinary recovery (in μg) divided by the plasma AUC over the same time interval (the longest period for which both plasma and urine measurements were available).
# Urine was collected prior to dosing and from 0-2, 2-4, 4-8, 8-12, 12-24, and 24-32 hours after the beginning of dose application. […] Testing methods used were consistent with those used by inVentiv Health Clinical Lab, Inc., Miami, Fla., U.S.A. Urinary pharmacokinetic parameters included total urinary recovery (μg), urinary recovery as a percentage of dose, and CLr.
# [2] = Example 3 urinary pharmacokinetics, normal hepatic function vs hepatic impairment; assay type: in vivo, human; settings: for Urine Recovery as % of Dose, Geomean / Urine Recovery as % of Dose, Mean: 0-32 h, single intranasal dose; for CLr Geomean / CLr Mean: Table 26
# Procedure: Urine was collected prior to dosing and from 0-2, 2-4, 4-8, 8-12, 12-24, and 24-32 hours after beginning of dose application. […] Urinary pharmacokinetic parameters included total urinary recovery (μg), urinary recovery as a percentage of dose, and CLr.
# [3] = Example 3 plasma pharmacokinetics, normal hepatic function vs hepatic impairment; settings: for AUC0→t (Geometric mean) / AUC0→t (Max) / AUC0→t (Mean) / AUC0→t (Median) / AUC0→t (Min) / AUC0→∞ (Geometric mean) / AUC0→∞ (Max) / AUC0→∞ (Mean) / AUC0→∞ (Median) / AUC0→∞ (Min) / Clast (Geometric mean) / Clast (Max) / Clast (Mean) / Clast (Median) / Clast (Min) / Cmax (Geometric mean) / Cmax (Max) / Cmax (Mean) / Cmax (Median) / Cmax (Min) / Tlast (Geometric mean) / Tlast (Max) / Tlast (Mean) / Tlast (Median) / Tlast (Min) / Tmax (Geometric mean) / Tmax (Max) / Tmax (Mean) / Tmax (Median) / Tmax (Min) / t1/2 (Geometric mean) / t1/2 (Max) / t1/2 (Mean) / t1/2 (Median) / t1/2 (Min): single intranasal 160 mg cocaine HCl, plasma
# [4] = normal renal function, listed as Benzoylecgonine
# [5] = severe renal impairment, listed as Benzoylecgonine
# [6] = normal hepatic function, single intranasal 160 mg cocaine HCl
# [7] = subjects with hepatic impairment
# [8] = subjects with hepatic impairment, 32 hours post administration
# [9] = subjects with hepatic impairment, Table 30
# [10] = subjects with normal hepatic function
# [11] = subjects with normal hepatic function, Table 29
compound,measurement,setting,value
"CN1[C@H]2CC[C@@H]1[C@@H](C(=O)O)[C@@H](OC(=O)c1ccccc1)C2 [BE, benzoylecgonine]",0-32 h Urinary Recovery (geometric mean),[1]; normal renal function,2106 µg
same,0-32 h Urinary Recovery (mean),[1]; normal renal function,2764 µg
same,0-32 h Urinary Recovery (median),[1]; normal renal function,1483 µg
same,"Renal Clearance, CLr (geometric mean)",[1]; normal renal function,3.61 L/h
same,"Renal Clearance, CLr (mean)",[1]; normal renal function,3.77 L/h
same,"Renal Clearance, CLr (median)",[1]; normal renal function,4.01 L/h
same,"Renal Clearance, geometric mean",[1]; normal renal function,60.14 mL/min
same,"Renal Clearance, mean",[1]; normal renal function,62.78 mL/min
same,"Renal Clearance, median",[1]; normal renal function,66.86 mL/min
same,0 to 32 hour urinary recovery (geometric mean),[1]; normal renal function,1.55 % of administered dose
same,0 to 32 hour urinary recovery (mean),[1]; normal renal function,2.03 % of administered dose
same,0 to 32 hour urinary recovery (median),[1]; normal renal function,1.089 % of administered dose
same,0 to 32 hour urinary recovery (geometric mean),[1]; [4],1.546 % of administered dose
same,0 to 32 hour urinary recovery (mean),[1]; [4],2.029 % of administered dose
same,0-32 h Urinary Recovery (geometric mean),[1]; severe renal impairment,3126 µg
same,0-32 h Urinary Recovery (mean),[1]; severe renal impairment,3738 µg
same,0-32 h Urinary Recovery (median),[1]; severe renal impairment,2709 µg
same,"Renal Clearance, CLr (geometric mean)",[1]; severe renal impairment,0.854 L/h
same,"Renal Clearance, CLr (mean)",[1]; severe renal impairment,0.919 L/h
same,"Renal Clearance, CLr (median)",[1]; severe renal impairment,0.824 L/h
same,"Renal Clearance, geometric mean",[1]; severe renal impairment,14.2 mL/min
same,"Renal Clearance, mean",[1]; severe renal impairment,15.3 mL/min
same,"Renal Clearance, median",[1]; severe renal impairment,13.7 mL/min
same,0 to 32 hour urinary recovery (geometric mean),[1]; severe renal impairment,2.29 % of administered dose
same,0 to 32 hour urinary recovery (mean),[1]; severe renal impairment,2.74 % of administered dose
same,0 to 32 hour urinary recovery (median),[1]; severe renal impairment,1.988 % of administered dose
same,0 to 32 hour urinary recovery (geometric mean),[1]; [5],2.294 % of administered dose
same,0 to 32 hour urinary recovery (mean),[1]; [5],2.744 % of administered dose
same,"Urine Recovery as % of Dose, Geomean",[2]; Impaired hepatic function,2.74 % of Dose
same,"Urine Recovery as % of Dose, Mean",[2]; Impaired hepatic function,3.30 % of Dose
same,CLr Geomean,[2]; Impaired hepatic function,2.59 L/h
same,CLr Mean,[2]; Impaired hepatic function,2.90 L/h
same,"Urine Recovery as % of Dose, Geomean",[2]; Normal hepatic function,1.42 % of Dose
same,"Urine Recovery as % of Dose, Mean",[2]; Normal hepatic function,1.73 % of Dose
same,CLr Geomean,[2]; Normal hepatic function,3.96 L/h
same,CLr Mean,[2]; Normal hepatic function,4.30 L/h
same,0-32 h Urinary Recovery (geometric mean),[2]; [6],1928.3 µg
same,0-32 h Urinary Recovery (mean),[2]; [6],2359.75 µg
same,0-32 h Urinary Recovery (median),[2]; [6],2098.9 µg
same,"Renal Clearance, geometric mean",[2]; [7],43.11 mL/min
same,"Renal Clearance, mean",[2]; [7],48.27 mL/min
same,"Renal Clearance, median",[2]; [7],47.80 mL/min
same,0-32 h Urinary Recovery (geometric mean),[2]; [8],3735.6 µg
same,0-32 h Urinary Recovery (mean),[2]; [8],4500 µg
same,0-32 h Urinary Recovery (median),[2]; [8],3283.7 µg
same,"Renal Clearance, geometric mean",[2]; [9],43.11 mL/min
same,"Renal Clearance, mean",[2]; [9],48.273 mL/min
same,"Renal Clearance, median",[2]; [9],47.8 mL/min
same,"Renal Clearance, geometric mean",[2]; [10],65.948 mL/min
same,"Renal Clearance, mean",[2]; [10],71.585 mL/min
same,"Renal Clearance, median",[2]; [10],58.237 mL/min
same,"Renal Clearance, geometric mean",[2]; [11],65.95 mL/min
same,"Renal Clearance, mean",[2]; [11],71.585 mL/min
same,"Renal Clearance, median",[2]; [11],58.23 mL/min
same,"AUClast, times higher than normal subjects",[3]; Grade B hepatic impairment,approximately 2.4 times
same,"AUClast, percent increased vs normal",[3]; Grade C hepatic impairment,12%
same,AUC0→t (Geometric mean),[3]; hepatic impairment,1235 ng·h/mL
same,AUC0→t (Max),[3]; hepatic impairment,3356 ng·h/mL
same,AUC0→t (Mean),[3]; hepatic impairment,1402 ng·h/mL
same,AUC0→t (Median),[3]; hepatic impairment,1190 ng·h/mL
same,AUC0→t (Min),[3]; hepatic impairment,606 ng·h/mL
same,AUC0→∞ (Geometric mean),[3]; hepatic impairment,1513 ng·h/mL
same,AUC0→∞ (Max),[3]; hepatic impairment,3532 ng·h/mL
same,AUC0→∞ (Mean),[3]; hepatic impairment,1724 ng·h/mL
same,AUC0→∞ (Median),[3]; hepatic impairment,1448 ng·h/mL
same,AUC0→∞ (Min),[3]; hepatic impairment,647 ng·h/mL
same,Clast (Geometric mean),[3]; hepatic impairment,14.3 ng/mL
same,Clast (Max),[3]; hepatic impairment,42.6 ng/mL
same,Clast (Mean),[3]; hepatic impairment,17.6 ng/mL
same,Clast (Median),[3]; hepatic impairment,16.6 ng/mL
same,Clast (Min),[3]; hepatic impairment,3.33 ng/mL
same,Cmax (Geometric mean),[3]; hepatic impairment,67.1 ng/mL
same,Cmax (Max),[3]; hepatic impairment,248 ng/mL
same,Cmax (Mean),[3]; hepatic impairment,81.2 ng/mL
same,Cmax (Median),[3]; hepatic impairment,67.8 ng/mL
same,Cmax (Min),[3]; hepatic impairment,27.4 ng/mL
same,Tlast (Geometric mean),[3]; hepatic impairment,32.0 h
same,Tlast (Max),[3]; hepatic impairment,32.0 h
same,Tlast (Mean),[3]; hepatic impairment,32.0 h
same,Tlast (Median),[3]; hepatic impairment,32.0 h
same,Tlast (Min),[3]; hepatic impairment,1920 min
same,Tmax (Geometric mean),[3]; hepatic impairment,6.95 h
same,Tmax (Max),[3]; hepatic impairment,12.0 h
same,Tmax (Mean),[3]; hepatic impairment,7.50 h
same,Tmax (Median),[3]; hepatic impairment,7.00 h
same,Tmax (Min),[3]; hepatic impairment,240 min
same,t1/2 (Geometric mean),[3]; hepatic impairment,12.3 h
same,t1/2 (Max),[3]; hepatic impairment,31.0 h
same,t1/2 (Mean),[3]; hepatic impairment,14.0 h
same,t1/2 (Median),[3]; hepatic impairment,12.1 h
same,t1/2 (Min),[3]; hepatic impairment,399 min
same,AUC0→t (Geometric mean),[3]; normal hepatic function,603 ng·h/mL
same,AUC0→t (Max),[3]; normal hepatic function,2969 ng·h/mL
same,AUC0→t (Mean),[3]; normal hepatic function,784 ng·h/mL
same,AUC0→t (Median),[3]; normal hepatic function,523 ng·h/mL
same,AUC0→t (Min),[3]; normal hepatic function,144 ng·h/mL
same,AUC0→∞ (Geometric mean),[3]; normal hepatic function,667 ng·h/mL
same,AUC0→∞ (Max),[3]; normal hepatic function,3446 ng·h/mL
same,AUC0→∞ (Mean),[3]; normal hepatic function,869 ng·h/mL
same,AUC0→∞ (Median),[3]; normal hepatic function,568 ng·h/mL
same,AUC0→∞ (Min),[3]; normal hepatic function,182 ng·h/mL
same,Clast (Geometric mean),[3]; normal hepatic function,4.33 ng/mL
same,Clast (Max),[3]; normal hepatic function,31.6 ng/mL
same,Clast (Mean),[3]; normal hepatic function,6.17 ng/mL
same,Clast (Median),[3]; normal hepatic function,3.71 ng/mL
same,Clast (Min),[3]; normal hepatic function,2.02 ng/mL
same,Cmax (Geometric mean),[3]; normal hepatic function,43.7 ng/mL
same,Cmax (Max),[3]; normal hepatic function,171 ng/mL
same,Cmax (Mean),[3]; normal hepatic function,57.5 ng/mL
same,Cmax (Median),[3]; normal hepatic function,35.5 ng/mL
same,Cmax (Min),[3]; normal hepatic function,7.03 ng/mL
same,Tlast (Geometric mean),[3]; normal hepatic function,32.0 h
same,Tlast (Max),[3]; normal hepatic function,32.0 h
same,Tlast (Mean),[3]; normal hepatic function,32.0 h
same,Tlast (Median),[3]; normal hepatic function,32.0 h
same,Tlast (Min),[3]; normal hepatic function,1920 min
same,Tmax (Geometric mean),[3]; normal hepatic function,1.96 h
same,Tmax (Max),[3]; normal hepatic function,8.00 h
same,Tmax (Mean),[3]; normal hepatic function,2.38 h
same,Tmax (Median),[3]; normal hepatic function,1.63 h
same,Tmax (Min),[3]; normal hepatic function,60 min
same,t1/2 (Geometric mean),[3]; normal hepatic function,9.00 h
same,t1/2 (Max),[3]; normal hepatic function,13.1 h
same,t1/2 (Mean),[3]; normal hepatic function,9.16 h
same,t1/2 (Median),[3]; normal hepatic function,8.91 h
same,t1/2 (Min),[3]; normal hepatic function,398 min
